Test [1] relates to Plasmodium falciparum. The experiment in a line: Antimalarial activity against Plasmodium falciparum at 10 ug/ml. The test is classed as functional, organism-based.
Another test has as its system Vibrio harveyi. The experiment in a line: Inhibition of bioluminescence in wild type Vibrio harveyi BB120 by quorum sensing assay. Format: functional, organism-based, Vibrio harveyi ATCC BAA-1116.
Test [2] deals with Plasmodium falciparum. The experiment in a line: Antimalarial activity against Plasmodium falciparum. Format: functional, organism-based.

Results on 7 molecules are retold here after ChEMBL document CHEMBL1156646, “Natural products chemistry and taxonomy of the marine cyanobacterium Blennothrix cantharidosmum” (J Nat Prod, 2008).

The term IC50 denotes the concentration that inhibits the measured activity by half. Lower therefore signals inhibition by little substance.

Each structure is given as a SMILES string. Calls of active or inactive are those of the source. The calls are words filed in the database; no cut-off is given here.

With `CCCCC(C)/C=C(\C)[C@H](O)[C@H](C)C(=O)N1CCC[C@H]1C(=O)O` (stereo partly drawn), the outcome in the test on Plasmodium falciparum [1] was inactive.

Regarding `CCCCCCCC[C@H](C)C(=O)N1CCC[C@H]1C(=O)O`, the result with Plasmodium falciparum [1] was inactive.

Take `CCCCCCCC[C@H](C)C(=O)N1CCC[C@H]1C(=O)O[C@@H](C(=O)O[C@H](C(=O)O)C(C)C)C(C)C`: the result in the test with Plasmodium falciparum [1] was inactive.

Consider `CCCCCCCCC(C)[C@H](OC(C)=O)[C@H](C)C(=O)N1CCC[C@H]1C(=O)O` (stereo partly drawn) [TUMONOIC ACID F], for which the result with Plasmodium falciparum [1] was inactive. For the same molecule, it took 62 µM to reach half-maximal inhibition in the test on Vibrio harveyi (IC50).

As for `CCCCCCCC[C@H](C)C(=O)N1CCC[C@H]1C(=O)O[C@@H](C(=O)O[C@@H](C)C(=O)O)[C@@H](C)CC`, the outcome with Plasmodium falciparum [1] was inactive.

As for `CCCCCCC/C=C(\C)[C@@H](O)[C@@H](C)C(=O)N1CCC[C@H]1C(=O)O`, the outcome in the test with Plasmodium falciparum [1] was inactive.

Consider `CCCC[C@H](C)C[C@H](C)C(=O)N1CCC[C@H]1C(=O)O[C@@H](C(=O)O[C@H](C(=O)O)[C@@H](C)CC)[C@@H](C)CC` [TUMONOIC ACID I], for which the IC50 with Plasmodium falciparum [2] turned out to be 2 µM.
